Values joined by “and” are separate entries in the source; they are usually repeats but may differ in a detail not shown here. Equal entries are not always repeated.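 In this assay, cells in 96-well plates receive the compound at five concentrations for 48 hours. Endpoints are linearly interpolated between the surrounding concentrations. GI50 = concentration required for 50% inhibition of growth. The concentration for full growth arrest is given as TGI.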
Test system: MDA-MB-468 breast
Assay: NCI anticancer screen, dose series, 48 h

Question: How did the GI50 turn out when O=C(Nc1ccccc1)Nc1ccc(Cl)c(Cl)c1 was run?
Answer: 2830 nM

Question: What about the TGI of the same compound?
Answer: 13900 nM

Question: For Fc1ccc(-c2c(-c3ccncc3)[nH]c3nccnc23)cc1, which GI50 is on record?
Answer: 4480 nM

Question: And the TGI?
Answer: > 21500 nM

Question: Cc1cc(C#Cc2ccccc2)ccc1-n1c(/C=C/c2cc(O)ccc2O)nc2ccccc2c1=O was tested. Which GI50 did it give?
Answer: 1610 nM

Question: And the TGI?
Answer: 4190 nM

Question: Cn1cc(C2=C(c3c(S(C)=O)n(C)c4ccccc34)C(=O)NC2=O)c2ccccc21 (centres undefined) was tested. Which GI50 did it give?
Answer: 6710 nM

Question: What about the TGI of the same compound?
Answer: > 25000 nM

Question: With O=c1c2cc(-c3ccc(F)cc3F)ccc2n(O)c(=O)n1-c1cccc(C(F)(F)F)c1 as the compound, how does the GI50 read?
Answer: 1680 nM

Question: And the TGI?
Answer: 5400 nM

Question: With CC1(O)COCCCCOc2c(CN)cccc2NC(=O)c2nc(cnc2N)-c2ccc(cc2)S(=O)(=O)C(C)(C)C1 (centres undefined) as the compound, how does the GI50 read?
Answer: 939 nM

Question: And the TGI?
Answer: 2520 nM

Question: With N=C1/C(=C2\Nc3ccccc3S2)CC(=O)N1c1ccc(SC(F)F)cc1 as the compound, how does the GI50 read?
Answer: > 100000 nM

Question: What about the TGI of the same compound?
Answer: > 100000 nM

Question: Which results are given for CNCCN(C)Cc1cn[nH]c1-c1ccc(OC2CC(OCCC3CCOCC3)C2)cc1 (centres undefined)?
Answer: GI50: 33700 nM; TGI: > 100000 nM

Question: How did the GI50 turn out when O=C1NC(=N[C@H](CO)c2ccccc2)S/C1=C\c1ccc2ncccc2c1 was run?
Answer: 2060 nM

Question: What about the TGI of the same compound?
Answer: 8970 nM

Question: With N[C@@H](CSSC[C@H](N)C(=O)N1CCn2cc(-c3ccccc3)nc2[C@@H]1CC1CCCCC1)C(=O)N1CCn2cc(-c3ccccc3)nc2[C@@H]1CC1CCCCC1 as the compound, how does the GI50 read?
Answer: 1070 nM

Question: And the TGI?
Answer: 2530 nM

Question: For C#Cc1ccc(-n2c(/C=C/c3ccc4ccccc4c3)nc3ncccc3c2=O)cc1, which GI50 is on record?
Answer: 963 nM

Question: And the TGI?
Answer: 7770 nM

Question: COC(=O)[C@]12CC[C@@H](C)[C@H](C)[C@@H]1C1=CC[C@@H]3[C@@]4(C)CC(=O)[C@H](O)[C@@](C)(CO)[C@@H]4C(=O)C[C@@]3(C)[C@]1(C)CC2 was tested. Which GI50 did it give?
Answer: 15200 nM

Question: And the TGI?
Answer: 32200 nM

Question: N#Cc1ccc(/C=C/C(=O)c2ccccc2)cc1 was tested. Which GI50 did it give?
Answer: 5950 nM and 1890 nM

Question: What about the TGI of the same compound?
Answer: 21100 nM and 5440 nM

Question: Which results are given for CC(C)[C@H](C(=O)O[C@@H]1/C=C/C(=O)O[C@@H](C)CCC/C=C/[C@@H]2C[C@H](O)C[C@H]21)N(C)C?
Answer: GI50: 1610 nM; TGI: 4620 nM

Question: For CNCCNc1nc2ccccc2c2c(=O)c3cccc(C)c3sc12, which GI50 is on record?
Answer: 892 nM

Question: What about the TGI of the same compound?
Answer: 1940 nM

Question: Which results are given for CCCc1n(Cc2ccc3ccccc3n2)cc[n+]1Cc1ccc2ccccc2n1?
Answer: GI50: 232 nM; TGI: 1550 nM

Question: What does the source list for O=C1/C(=C/c2ccccc2[N+](=O)[O-])COc2ccc(O)c(O)c21?
Answer: GI50: 608 nM; TGI: 2940 nM

Question: For COC(=O)c1ccc2c(C(=Nc3ccc(N(C)C(=O)CN4CCN(C)CC4)cc3)c3ccccc3)c(O)[nH]c2c1, which GI50 is on record?
Answer: 2130 nM

Question: And the TGI?
Answer: 9780 nM

Question: How did the GI50 turn out when COCCOC1=C(Cl)C(=O)c2c(O)ccc(O)c2C1=O was run?
Answer: 899 nM

Question: And the TGI?
Answer: 2450 nM

Question: COc1cc(-c2nn(-c3cccc(NC(=O)CCN4CCN(C)CC4)c3)cc2-c2ccncc2)ccc1Cl was tested. Which GI50 did it give?
Answer: 997 nM

Question: What about the TGI of the same compound?
Answer: 2850 nM

Question: How did the GI50 turn out when CCN(CCO)CCCOc1ccc2c(Nc3cc(CC(=O)Nc4cccc(F)c4)[nH]n3)ncnc2c1 was run?
Answer: 1040 nM and 109 nM

Question: And the TGI?
Answer: 18900 nM

Question: CS(=O)(=O)N1CCc2c(-c3cnc(N)nc3)nc(N3CCOCC3)nc21 was tested. Which GI50 did it give?
Answer: 305 nM and 264 nM

Question: What about the TGI of the same compound?
Answer: 3000 nM and 2300 nM

Question: How did the GI50 turn out when COc1cc(Cn2c(SCC(=O)Nc3ccc(Cl)cc3)nc3ccccc3c2=O)cc(OC)c1OC was run?
Answer: 7220 nM

Question: What about the TGI of the same compound?
Answer: 42400 nM

Question: With COc1ccc(-c2nc3sccn3c2-c2ccnc(NCCCNS(=O)(=O)c3ccc(F)cc3)n2)cc1 as the compound, how does the GI50 read?
Answer: 1550 nM

Question: And the TGI?
Answer: 6480 nM

Question: What does the source list for Cc1cc(N)cc(C)c1-c1c(Br)cc(N)cc1Br?
Answer: GI50: 2090 nM; TGI: 6580 nM

Question: Which results are given for FC(F)(F)c1ccc(NCc2nc3ccccc3[nH]2)cc1?
Answer: GI50: 16700 nM; TGI: 55600 nM

Question: CCN1C(=O)N(CC)C2C1NN=c1s/c(=C\c3ccc(OC)cc3)c(=O)n12 (centres undefined) was tested. Which GI50 did it give?
Answer: 130 nM

Question: And the TGI?
Answer: > 60800 nM

Question: O=C1NC(=O)C(c2c[nH]c3ccccc23)=C1c1ccccc1 was tested. Which GI50 did it give?
Answer: > 25000 nM

Question: And the TGI?
Answer: > 25000 nM

Question: For CCCCNNC(=O)c1ccc(-c2cccc(F)c2F)cc1, which GI50 is on record?
Answer: 1710 nM

Question: And the TGI?
Answer: 6060 nM

Question: COc1ccc2nc3cc(Cl)ccc3c(Nc3cc(C(C)C)c(O)cc3C)c2c1 was tested. Which GI50 did it give?
Answer: 1560 nM

Question: And the TGI?
Answer: 4600 nM

Question: With OCc1ccc(N(Cc2ccc(F)cc2)CC2CCC2)cc1Cl as the compound, how does the GI50 read?
Answer: 184 nM

Question: What about the TGI of the same compound?
Answer: 610 nM

Question: Which TGI does the source give for CNc1ncc2cc(-c3cc(NC(=O)NCCC(C)(C)C)c(F)cc3C)c(C)nc2n1 here?
Answer: > 67100 nM

Question: Which GI50 does the source give for Oc1cccc(-c2nc(-c3ccccc3)[nH]c2-c2ccncc2)c1 here?
Answer: 2080 nM

Question: And the TGI?
Answer: 11400 nM

Question: For O=C(O)c1cn(C2CC2)c2cc(N3CCN(Cc4ccc5ccccc5c4O)CC3)c(F)cc2c1=O, which GI50 is on record?
Answer: 4550 nM

Question: What about the TGI of the same compound?
Answer: > 100000 nM

Question: What does the source list for COc1ccc(/C=C2/CN(CCC#N)C/C(=C\c3ccc(OC)cc3)C2=O)cc1?
Answer: GI50: 1390 nM; TGI: 4950 nM

Question: Which GI50 does the source give for Cc1[nH]n(-c2cccc(Cl)c2)c(=O)c1/C=C1\C=c2ccccc2=CC1=O here?
Answer: 17600 nM

Question: What about the TGI of the same compound?
Answer: 74700 nM

Question: What does the source list for COc1ccc2c(c1)N(CCO)C1=C(C(=O)OC1)C2c1ccc(OC)c(OC)c1 (centres undefined)?
Answer: GI50: 1740 nM; TGI: 7570 nM

Question: What does the source list for CCCCOc1ccc(S(=O)(=O)N2CCN(c3nc(C)cc(N4CCOCC4)n3)CC2)cc1?
Answer: GI50: 2690 nM; TGI: > 100000 nM

Question: How did the GI50 turn out when O=C(CSc1ncc(-c2ccccc2)n1-c1ccccc1)Nc1ccc(-c2nc3ccccc3s2)cc1 was run?
Answer: 1350 nM

Question: What about the TGI of the same compound?
Answer: 4960 nM

Question: What does the source list for CN1CCN(c2ccc(Nc3ncc4cc5n(c4n3)C3(CCCCC3)CNC5=O)nc2)CC1?
Answer: GI50: 10900 nM; TGI: 36000 nM

— PubChem BioAssay (NCI)
